Assay results taken from US20060241067A1, “Methods For inhibiting angiogenesis, cell migration, cell adhesion, and cell survival” (priority 2002, published 2006).
Like-named read-outs stand apart in the source and are kept apart here. Where a SMILES comes first, the peptide text is derived from it. Where no end group is shown, it is not given here. The star is where a group is joined. Cbz = O=C(OCc1ccccc1)*; CH2F = FC*

Experiments:
HUVECS [1] = assay: Annexin V-FITC staining of HUVECs (apoptosis); type: cell-based, human
Procedure: Plates were also coated with […] goat anti-mouse IgG (Southern Biotechnology Associates, Inc., Birmingham, Ala.) at 37° C. for 2 h, rinsed, blocked with denatured BSA, and then incubated with […] anti-a5b1 or control IgG (anti-MHC) at 4° C. for 16 hrs. HUVECs were incubated on plates in the presence or absence of 10 mg/ml anti-α5β1, -αvβ3, -α2β1, or -MHC for 0-24 hrs. In some experiments, HUVECs were incubated with antibodies and […] caspase-3, -8 or -9 inhibitors or vehicle control (0.5% DMSO). Cells were then incubated with Annexin V-FITC for 15 min at room temperature in the dark. Washed cells were fixed in 1% paraformaldehyde, then incubated in DAPI. The percentage of Annexin positive cells in 5 microscopic fields was determined at 200× magnification by fluorescence microscopy.
(§1) HUVECs were plated for 24 h on ECM protein-coated plates in the presence of anti-αvβ3 or anti-α5β1, 1 μM HA1004 (a PKA inhibitor), and anti-αvβ3 or anti-α5β1 with 1 μM HA1004. Cells were stained with FITC-Annexin V or immunoblotted with anti-cleaved caspase 3 antibodies as described above. 5×10^6 HUVECs were electroporated in 300 μl of EGM with 30 μg of DNA (20 μg dnPKA or PKAcat plasmids, 2 μg N1-GFP and 8 μg pBluescript) at 300 V, 450 μF as previously described (Dormond et al. (2001) Nature Med. 7,1041-7). Expression of transgenes was determined by Western blotting of cell lysates with anti-V5 and anti-GFP antibodies. Transfection efficiency was quantified by determining the percent of cells that were co-transfected with GFP-expression vectors. Eighty-percent transfection efficiency was generally achieved using this electroporation method.

[2] = system: chick chorioallantoic membrane (CAM); assay: Chick chorioallantoic membrane (CAM) angiogenesis assay; type: in vivo, chicken; details: for effect on inhibition of angiogenesis by anti-αvβ3: 500 μM caspase inhibitors; for effect on inhibition of angiogenesis by anti-α5β1: 500 μM caspase inhibitors or 4 μg plasmid; for angiogenesis (blood vessel branch points, vessel density): 1 μM peptide
[3] = system: chick chorioallantoic membrane (CAM); assay: Apoptosis markers in CAM blood vessels in vivo (Annexin V, cleaved caspases, TUNEL, DNA gels); parameters: species or system chicken; details: for caspase activity in vivo (cleaved caspase immunoblot): CAMs treated with anti-α5β1 and caspase inhibitor; for effect on endothelial cell DNA fragmentation induced by α5β1 inhibition in vivo: TUNEL staining of CAM cryosections
Procedure: CAM assays were performed as described (Kim et al. (2000) Am. J. Path. 156:1345-1362). Saline or bFGF stimulated CAMs were treated for 24 h with 20 μg anti-α5β1, anti-αvβ3 or control antibodies and then injected intravenously with 50 μl Annexin V-FITC. CAMs were harvested after 2 h, then analyzed by confocal microscopy. Alternatively, CAMs treated as above were excised, minced on ice, and treated with 0.1% dispase/0.1% collagenase for 1 h at 37° C. Single cell suspensions were incubated with FITC-Annexin V and analyzed as described above. bFGF stimulated CAMs were also treated with anti-α5β1 or anti-αvβ3 in the presence or absence of 500 μM caspase-3, -8 or -9 inhibitors. bFGF stimulated CAMs were also transfected with 4 μg N1-GFP, dnPKA or PKAcat expression plasmids. Freshly excised CAMs were homogenized in ice cold RIPA buffer containing protease inhibitors and immunoblotted to detect intact and cleaved caspase 3 or 8. For all treatment groups, n=10. CAMs were fixed with 3.7% paraformaldehyde prior to excision. The average number of blood vessel branch points per treatment group+/−SEM is presented. Some excised CAMs were cryopreserved, cut into 5 μm sections, immunostained with anti-cleaved caspase 3, anti-cleaved caspase 8 and anti-VFW antibodies (to detect blood vessels). CAMs were also stained by the TUNEL method to detect fragmented DNA.

protein kinase A = assay: PKA activity assay in HUVECs; type: cell-based, human
Procedure: PKA activity was measured in HUVECs essentially as previously described in Kim et al (S. Kim et al., Amer. J. Biol. Chem., 275:33920-33928 (02000)). HUVECs were placed in suspension, allowed to attach to ECM protein coated plates in the absence or presence of anti-integrin antibodies or were treated with 10 μM PTHrP and/or 250 μM cAMP. PKA activity was measured at various times from 0-4 hrs (e.g., 2-30 min).
Plates were washed and blocked in 3% bovine serum albumin for 1 hour at 37° C. HUVECS were trypsinized and resuspended in adhesion buffer (Hanks balanced salt solution supplemented with 10 mM HEPES, pH 7.4, 2 mM MgCl2, 2 mM CaCl2, 0.2 mM MnCl2, 1% BSA. Cells were plated on matrix protein coated plates in culture medium or in the presence of 25 μg/ml anti-α5β1, anti-αvβ3 or anti-α2β1 antibodies for various times from 0 minutes to 4 hours. Plates were washed with phosphate buffered saline and cells were extracted with cold extraction buffer (50 mM Tris, pH 7.5, 5 mM EDTA, 25 μg/ml aprotinin and 25 μg/ml leupeptin). Protein Kinase A activity was assessed using a kit from Gibco BRL. Briefly, equal volumes of lysate and reaction mixture containing final concentrations of 50 mM Tris, pH 7.5, 10 mM MgCl2, 0.25 mg/ml BSA, 50 μM Kemptide (a protein kinase A substrate), 3000 Ci/mmol (γ^32 P) ATP and 100 μM ATP were combined for 5 minutes at 30° C. Total PKA in each sample was measured by performing the assay in the presence of 10 μM cAMP. Background PKA activity in test and total PKA samples were determined by performing the assay in the presence of a PKA inhibitor peptide, PKI (6-22) amide. Twenty μl samples of reaction mixtures were spotted onto phosphocellulose discs and washed repeatedly with 1% (v/v) phosphoric acid in water. Incorporated radioactivity was determined by scintillation counting. Activated PKA was calculated from the ratio of pmol/min test sample PKA to pmol/min total PKA. PKA activity in triplicate samples was measured and experiments were repeated at least three times.
In another embodiment, PKA assays were performed with a kit from Calbiochem (San Diego, Calif.). Cell lysates were incubated in ELISA plates coated with a PKA peptide substrate, then incubated with anti-phosphoserine antibodies. Bound antibody was detected after incubation with anti-rabbit IgG-horse radish peroxidase. Statistical analyses were performed using Student's t-test.

[4] = system: Human umbilical vein endothelial cells (HUVEC); assay: Endothelial cell migration assay (transwell) on ECM substrates; type: cell-based; details: for endothelial cell migration on vitronectin: 1 μM peptide
Procedure: Human umbilical vein endothelial cells (HUVEC) were grown in Endothelial Growth Medium (containing 2% fetal bovine serum, bFGF and VEGF) (Clonetics, San Diego, Calif.). To render HUVECs quiescent for Rac and/or Rho assays, monolayers of endothelial cells were incubated for 18 hrs in Endothelial Basal Medium supplemented with 0.1% serum (Clonetics). Cell migration and adhesion assays on ECM substrates were performed as previously described in Kim et al. (S. Kim et al., Amer. J. Biol. Chem., 275:33920-33928 (2000); and S. Kim et al., Amer. J. Path., 156:1345-1362 (2000)).
Migration assays were performed essentially as described (Kim, et. al., 2000). […] HUVECS (25,000) were added to the upper chamber of inserts in migration buffer (Hepes buffered M199 medium containing 1% BSA, 2 mM MgCl2, 2 mM CaCl2 and 0.2 mM MnCl2) containing 25 μg/ml of various antibodies. In some experiments, 250 μM dibutyryl cAMP was placed in the upper and lower chambers of the transwell. Cells were allowed to migrate from the upper to the lower chamber for four hours at 37° C. The number of cells which had migrated were counted in three representative high power (200×) fields per insert. The data are presented as number of cells migrating+/−standard error of the mean. Migration assays were similarly performed on transfected cells. In this case, migrated transfected cells were identified by fluorescent microscopy and counted.

[5] = system: DU145 prostate carcinoma tumors; assay: DU145 tumor assay in nude mice; type: in vivo; details: daily intravenous injections, ten days
HUVECS [6] = assay: Apoptosis assays in HUVECs (PARP and caspase immunoblots, caspase activity, DNA fragmentation); type: cell-based, human
Procedure: In some embodiments, HUVECs were incubated on ECM or antibody coated plates for 0-24 hrs. DNA fragmentation was detected by agarose gel electrophoresis as described in M. Herrmann et al. (See, M. Herrmann et al., Nucleic Acids Res., 22:5506-5507 (1994)). Alternatively, HUVECS on plates were lyzed with RIPA buffer (See, S. Kim et al., J. Biol. Chem., 275:33920-33928 (2000)) on ice. Lysates were electrophoresed on 8% SDS-PAGE gels and immunoblotted with anti-PARP, -caspase-3, -caspase-9, -cleaved caspase 3, or -cleaved caspase-9 antibodies. Immunoreactive bands were identified by chemiluminescence and quantified by densitometry. Caspase 3 and 8 activities were determined in cell lysates according to manufacturer's instructions (Calbiochem, La Jolla, Calif.).
as §1

With `COC(=O)CC[C@H](NC(=O)[C@H](CC(=O)OC)NC(=O)OCc1ccccc1)C(=O)N[C@H](C(=O)N[C@@H](CC(=O)OC)C(=O)CF)C(C)C` [caspase 3 inhibitors, z-DEVD-fmk] the “effect on cell death induced by anti-α5β1 antibodies” value (HUVECS [1]; 50 μM caspase inhibitor, cells on fibronectin or vitronectin, 24 h) was “blocked”, the “effect on inhibition of angiogenesis by anti-αvβ3” value ([2]; bFGF stimulated CAMs) was “partially reversed” and the “effect on inhibition of angiogenesis by anti-α5β1” value ([2]; bFGF stimulated CAMs) was “partially reversed”. For the same compound, the “caspase activity in vivo (cleaved caspase immunoblot)” value [3] was “partially blocked caspase 3 activity in vivo” and the “effect on endothelial cell DNA fragmentation induced by α5β1 inhibition in vivo” value [3] was “prevented in vivo endothelial cell DNA fragmentation”.

For pertussis toxin, the PKA activation (protein kinase A; inventors' data, no details given) was “inhibits PKA activation”.

“H L Q A H S V E D L (HLQAHSVEDL) [scrambled 1-10, scrambled version of PTHrP 1-10, control peptide]” was tested, and the “endothelial cell migration on vitronectin” value (from here on “endothelial cell migration”) [4] was “unable to inhibit cell migration”, the tumor growth ([5]; final serum concentration 1 μM) was “but not a scrambled control peptide, suppressed tumor growth and tumor angiogenesis” and the “tumor angiogenesis (CD31 vessels)” value [5] was “but not a scrambled control peptide, suppressed tumor growth and tumor angiogenesis”.

“PTHrP 15-34: PTHrP fragment, amino acids 15-34 (IQDLRRRFFLHHLIAEIHTA)” was tested, and the “endothelial cell migration” value [4] was “unable to inhibit cell migration”.

For `O=S(=O)(NCCNCC=Cc1ccc(Br)cc1)c1cccc2cnccc12` [H89, N-(2-(p-bromocinnamylamino)ethyl)-5-isoquinoline sulfonamide], the “effect on cAMP-, PKA catalytic subunit- or PTHrP-mediated inhibition of cell migration” value ([4]; HUVEC on vitronectin) was “blocked the anti-migratory properties of PTHrP” and the “effect on inhibition of angiogenesis by PTHrP” value ([2]; bFGF stimulated CAMs, 8B12, 480 nM H89 or dnPKA plasmid) was “blocks the suppression of angiogenesis induced by PTHrP 1-34”.

“PTHrP 1-86: PTHrP fragment containing the N-terminus, amino acids 1-86” was tested, and the “endothelial cell migration” value [4] was “inhibited migration” and the “angiogenesis (blood vessel branch points, vessel density)” value ([2]; bFGF stimulated CAMs) was “potently inhibited angiogenesis”.

“calcitonin: a calcium regulating peptide hormone (CGNLSTCMLGTYTQDFNKFHTFPQTAIGVGAP; ends and bridges not checked; cysteine pairing not given here; UniProt P01258 85-116, looked up)” was tested, and the “angiogenesis (blood vessel branch points, vessel density)” value ([2]; bFGF stimulated CAMs) was “Only PTHrP inhibited angiogenesis” and the “pre-existing vessels (number, size, composition)” value ([2]; saline-stimulated CAMs) was “no effect on the number, size or composition of pre-existing vessels”.

With `CC[C@H](C)[C@H](NC(=O)OCc1ccccc1)C(=O)N[C@@H](CCC(=O)OC)C(=O)N[C@H](C(=O)N[C@@H](CC(=O)OC)C(=O)CF)[C@@H](C)O` [caspase 8 inhibitors, z-IETD-fmk] (Cbz-IE(OMe)TD(OMe)-CH2F) the “effect on inhibition of angiogenesis by anti-αvβ3” value ([2]; bFGF stimulated CAMs) was “partially reversed”, the “effect on inhibition of angiogenesis by anti-α5β1” value ([2]; bFGF stimulated CAMs) was “fully reversed” and the “caspase activity in vivo (cleaved caspase immunoblot)” value [3] was “completely blocked its activity in vivo”. For the same compound, the “effect on endothelial cell DNA fragmentation induced by α5β1 inhibition in vivo” value [3] was “prevented in vivo endothelial cell DNA fragmentation”.

With cholera toxin the PKA activation (protein kinase A) was “activates PKA”.

“PTHrP 107-138: PTHrP fragment lacking the N-terminus (TRSAWLDSGVTGSGLEGDHLSDTSTTSLELDS; UniProt P12272 143-174, looked up, fragment)” was tested, and the “endothelial cell migration” value [4] was “not able to inhibit cell migration”.

In the case of `NC(N)=NCCNS(=O)(=O)c1cccc2cnccc12` [HA1004], the “effect on apoptosis induced by integrin antagonists” value (HUVECS [1]; PKA inhibition (1 μM HA1004 or dnPKA), 24 h) is reported as “substantially suppressed the apoptosis” and the “effect on caspase 3 cleavage induced by anti-α5β1” value (HUVECS [6]; cells attached to vitronectin) is reported as “blocked caspase 3 cleavage”.

For “fibronectin: ECM protein used as culture substrate”, the “annexin V binding of HUVECs by culture substrate” value (HUVECS [1]; coated plates, 0-8 h) was “bind little annexin V”, the “DNA fragmentation by culture substrate” value (HUVECS [6]; HUVECs on coated plates) was “protects HUVECs from DNA fragmentation” and the “PARP cleavage by culture substrate” value (HUVECS [6]; HUVECs on coated plates) was “showed little PARP cleavage”.
